Ki and IC50 data for three molecules are collected here from ChEMBL document CHEMBL3091358, “Structures of human acetylcholinesterase bound to dihydrotanshinone I and territrem B show peripheral site flexibility” (ACS Med Chem Lett, 2013).

Test [1] addresses T1, Acetylcholinesterase (Homo sapiens, UniProt P22303). Put plainly: Inhibition of human acetylcholinesterase.
Test [2] addresses T1, Acetylcholinesterase. Put plainly: Inhibition of acetylcholinesterase (unknown origin).

T1 sequence (P22303 whole entry): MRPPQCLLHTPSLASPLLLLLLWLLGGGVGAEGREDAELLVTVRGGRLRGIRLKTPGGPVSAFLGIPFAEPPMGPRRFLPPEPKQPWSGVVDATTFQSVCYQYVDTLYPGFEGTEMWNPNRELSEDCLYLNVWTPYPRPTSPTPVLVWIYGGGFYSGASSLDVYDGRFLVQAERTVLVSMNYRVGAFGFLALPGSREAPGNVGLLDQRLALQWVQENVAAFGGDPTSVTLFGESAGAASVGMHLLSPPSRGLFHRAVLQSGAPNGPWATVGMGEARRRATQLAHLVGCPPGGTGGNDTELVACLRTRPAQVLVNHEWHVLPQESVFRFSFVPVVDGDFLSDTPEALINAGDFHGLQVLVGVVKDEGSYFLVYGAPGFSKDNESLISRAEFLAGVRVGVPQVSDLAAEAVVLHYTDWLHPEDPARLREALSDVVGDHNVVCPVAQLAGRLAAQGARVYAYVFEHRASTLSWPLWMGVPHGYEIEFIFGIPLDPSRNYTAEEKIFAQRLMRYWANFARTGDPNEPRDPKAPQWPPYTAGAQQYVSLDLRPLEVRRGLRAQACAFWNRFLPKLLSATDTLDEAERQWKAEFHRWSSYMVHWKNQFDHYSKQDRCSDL

For orientation: Ki means a measure of affinity in units of concentration, obtained from inhibition or displacement. Higher therefore signals weaker binding. As a reminder, the IC50 is the concentration that gives 50% inhibition. Low values mean higher potency, high ones lower potency. Regarding `Cc1cccc2c3c(ccc12)C1=C(C(=O)C3=O)[C@@H](C)CO1` [DIHYDROTANSHINONE I], the affinity in test [1], expressed as Ki, was 600 nM. Besides, 1000 nM corresponded to half-maximal inhibition in test [2] (IC50).

Molecule `Cc1coc2c1C(=O)C(=O)c1c-2ccc2c1CCCC2(C)C` [TANSHINONE IIA] showed an IC50 in test [2] of more than 140000 nM.

In test [2], `Cc1coc2c1C(=O)C(=O)c1c-2ccc2c(C)cccc12` [TANSHINONE I] gave a half-inhibitory concentration (IC50) of more than 50000 nM.
